Ends that are not written are not given here.

In experiment [1] the test system is four family VIII BD. Conditions: cited from earlier work. From the text:
How SMARCA4 targets, is recruited to, and interacts with chromatin substrates to induce ATP-dependent nucleosome remodeling has been a long-standing question. Recent structures of the SMARCA4 catalytic-core domain in complex with a nucleosome core particle, as well as a nucleosome-bound SWI/SNF complex comprising SMARCA4 and nine auxiliary subunits, provided insights into the mechanism of SWI/SNF remodeling ([25], [26]). But the structural basis underlying SMARCA4 recognition of its histone tail target has remained elusive despite the existence of SMARCA4 structures in the apo state ([1], [27] ...

Experiment [2] relates to SMARCA4. The note with it: C-terminal BD motif; cited from earlier work. The source says:
SMARCA4/BRG1 is an essential catalytic core subunit of the roughly two-megadalton Switch/Sucrose Nonfermenting (SWI/SNF) multiprotein complex, which uses the energy of ATP hydrolysis to remodel chromatin by perturbing interactions between histone core particles and DNA ([14], [15]). SMARCA4 can remodel nucleosomal substrates by itself in vitro ([16], [17]) and is functionally and structurally conserved among eukaryotes ([14], [18]).

In experiment [3] the test system is ASH1L-BD. The note with it: cited from earlier work.
The subject of experiment [4] is SMARCA2. Conditions: cited from earlier work. The source says:
(§1) We next asked if the SMARCA4-specific residues are also conserved in other family VIII BDs that bind H3K14ac. […] PBRM-1 is an SWI/SNF accessory protein in the PBAF complex that contains six tandem N-terminal BDs ([42]). The second and fourth PBRM-1 BDs (BD(2) and BD(4)) bind H3K14ac ([43], [44]). Due to the low sequence homology outside of the central α A and αB helices ([1]), we aligned the family VIII BDs based on the superposition of their structures and added CeSMARCA4 to the alignm ...

Experiment [5] deals with PBRM-1. Conditions: cited from earlier work.
Source text: as §1

In experiment [6] the test system is PBRM-1 BD(2) and BD(4). The note with it: cited from earlier work.
Source text: as §1

Experiment [7] deals with HsPBRM-1 BD(5). The note with it: PBRM-1 BD(5); cited from earlier work. From the text: We superimposed each family VIII BD structure onto the CeSMARCA4-BD structure and plotted the deviation for each residue (Fig. 5D and Fig. S2). […] The overall roo ...
Experiment [8] has as its system Saccharomyces cerevisiae Sth1 (ScSth1) BD. Conditions: cited from earlier work. The source says:
How SMARCA4 targets, is recruited to, and interacts with chromatin substrates to induce ATP-dependent nucleosome remodeling has been a long-standing question. Recent structures of the SMARCA4 catalytic-core domain in complex with a nucleosome core particle, as well as a nucleosome-bound SWI/SNF complex comprising SMARCA4 and nine auxiliary subunits, provided insights into the mechanism of SWI/SNF remodeling ([25], [26]). […] Water-mediated hydrogen bonds stabilize the interaction between H3R17 and Tyr1270 on the αC-helix. || We next asked if the SMARCA4-specific residues are also conserved in other family VIII BDs that bind H3K14ac. […] PBRM-1 is an SWI/SNF accessory protein in the PBAF complex that contains six tandem N-terminal BDs ([42]). The second and fourth PBRM-1 BDs (BD(2) and BD(4)) bind H3K14ac ([43], [44]). Due to the low sequence homology outside of the central α A and αB helices ([1]), we aligned the family VIII BDs based on the superposition of their structures and added CeSMARCA4 to the alignm ...

Experiment [9] has as its target T1, BAZ2B BD (Homo sapiens, UniProt Q9UIF8).
T1 sequence (Q9UIF8 2060-2164 limits assumed): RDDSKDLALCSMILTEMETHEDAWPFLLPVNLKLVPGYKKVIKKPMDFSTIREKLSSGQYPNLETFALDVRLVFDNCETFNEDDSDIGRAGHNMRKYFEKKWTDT
The experiment is described as follows: ITC, BAZ2B bromodomain. It is filed as binding. The note with it: BAZ2B wt, GST +, 293 or 298 K, 10 mM HEPES, 100 mM NaCl, 2.5% glycerol, pH 7.3. In general terms: ITC needs no label: the signal is the heat of the interaction.

The target in experiment [10] is T2, CeSMARCA4 BD crystallisation construct (residues Lys1176–Glu1296, Phe1287Ser) (C. elegans, UniProt G5EF53 1176-1296, Phe1287Ser).
T2 construct: SWSN-4 (CeSMARCA4), C. elegans, bromodomain, residues Lys1176-Glu1296 with the point mutation Phe1287Ser; pGEX-6P-1 vector with an HRV 3C protease site; also called untagged CeSMARCA4 BD; source: E. coli BL21 (DE3), purified (Glutathione Sepharose, PreScission cleavage, Q Sepharose, Sephacryl S-200); not shown: GST, N-terminal, cleaved
T2 sequence (looked up): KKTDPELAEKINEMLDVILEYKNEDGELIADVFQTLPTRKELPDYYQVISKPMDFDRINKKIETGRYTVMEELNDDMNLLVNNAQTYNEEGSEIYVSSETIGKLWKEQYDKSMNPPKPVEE
The experiment can be described thus: crystal structure; BD incubated with 2:1 M excess H3_(7–20)K14ac peptide at 4 °C, sitting-drop vapor diffusion, 35% PEG smear; 1.29 Å, space group P4_(1)2_(1)2. Conditions: both partners purified.

Experiment [11] concerns the target T3, CeSMARCA4 BD with the GST tag cleaved off (ITC) (C. elegans, UniProt G5EF53 1179-1289).
T3 construct: SWSN-4 (CeSMARCA4), C. elegans, bromodomain; the Asp1179-Asn1289 construct is the one named for ITC; A protease site and cleavage are described only for the crystallisation construct (K1176-E1296, F1287S); also called CeSMARCA4 bromodomain, GST tag removed; source: E. coli BL21 (DE3), purified, GST tag cleaved off; not shown: GST, N-terminal, cleaved
T3 sequence (looked up): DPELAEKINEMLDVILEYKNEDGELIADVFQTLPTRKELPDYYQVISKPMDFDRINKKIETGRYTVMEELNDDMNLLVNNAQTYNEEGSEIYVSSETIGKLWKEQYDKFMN
The experiment can be described thus: ITC; MicroCal Auto-iTC200, 293 or 298 K, 10 mM HEPES, 100 mM NaCl, 2.5% glycerol, pH 7.3; protein 50–100 μM in the cell, peptide 500–1000 μM in the syringe; single-site binding model. Conditions: both partners purified.

The target of experiment [12] is T4, CeSMARCA4 GST–BD fusion (C. elegans SMARCA4/SWSN-4 bromodomain, residues D1179–N1289, GST-tagged) (C. elegans, UniProt G5EF53 1179-1289).
T4 construct: SWSN-4 (CeSMARCA4, ortholog of human SMARCA4/BRG1), C. elegans, bromodomain, residues D1179-N1289; Cloned from Bristol N2 cDNA into a pGEX vector; also called GST-CeSMARCA4; CeSMARCA4 BD; source: E. coli BL21 (DE3), purified (Glutathione Sepharose 4B, eluted with reduced glutathione, dialysed); not shown: GST, N-terminal, kept
T4 sequence (looked up): T3 sequence (looked up)
The experiment is described as above. The note with it: both partners purified.

Experiment [13] has as its target T5, human BAZ2B bromodomain (human).
T5 chain: T1 sequence (Q9UIF8 2060-2164 limits assumed)
The experiment can be described thus: ITC.

As to `O=C(/C=C/N1C[C@H]2C[C@@H]1CN2c1ccccn1)c1ccccc1O` [PFI-3], the “selectivity of chemical probe” value in experiment [1] is reported as “selective for four family VIII BD”.

Consider “H3K14ac: lysine 14 acetylation on histone H3 (ARKSTGGKAPRKQL; not fully specified (residue 8); also: K14 acetylation, chain position not given here)”, for which the H3K14ac recognition result in experiment [2] is “capable of recognizing”. Moreover, the H3K14ac binding entry in experiment [3] is “unable to bind”; in [6], “bind”; in experiment [7], “cannot bind”. The “selective H3K14ac binding” value in [4], in [5] and in experiment [8] was “reported to selectivity bind” throughout. The “binding of mutated H3 peptide / acetylated mark to ScSth1 BD” value in experiment [8] is on record as “binds more promiscuously”.

For `CC(=O)NCCCC[C@H](NC(=O)CNC(=O)CNC(=O)[C@@H](NC(=O)[C@H](CO)NC(=O)[C@H](CCCCN)NC(=O)[C@H](CCCNC(=N)N)NC(=O)[C@H](C)N)[C@@H](C)O)C(=O)N[C@@H](C)C(=O)N1CCC[C@H]1C(=O)N[C@@H](CCCNC(=N)N)C(=O)N[C@@H](CCCCN)C(=O)N[C@@H](CCC(N)=O)C(=O)N[C@@H](CC(C)C)C(=O)O` [H3_7–20K14ac], the Kd in experiment [9] turned out to be 12.1 ± 0.2 µM.

B1: histone H3_(7–20)K14ac peptide (peptide, UniProt P68431 8-21, looked up)
peptide: ARKSTGGK(Ac)APRKQL
notes: histone H3 N-terminal tail, residues 7-20; also called H3K14ac peptide
In the case of B1, in experiment [10], the binding result was “binds”. Besides, the Kd in [11] amounted to 23.4 ± 0.8 µM; in experiment [12], 11.6 ± 0.1 µM; in experiment [13] it was 12.1 µM.

For orientation: Kd means the constant that tells how readily two partners part at equilibrium.

The values are drawn from paper PMC8506967, “Binding specificity and function of the SWI/SNF subunit SMARCA4 bromodomain interaction with acetylated histone H3K14” (The Journal of Biological Chemistry, 2021).
